Results from patent US8785457B2 (Cellzome Limited, priority 2009, dated 2014).
Like-named read-outs stand apart in the source and are kept apart here.

Key:
Type in all cases: binding
[1] = target: T1, DNA-dependent protein kinase (DNA-PK) (Homo sapiens, UniProt P78527); assay: kinobeads assay, DNA-PK
T1 construct: endogenous in cells; host or cells: Jurkat, clone E6-1 (ATCC TIB-152) cell lysate
Method in brief: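 Competitive binding in Jurkat cell lysate (5 mg/ml total protein): test compounds at various concentrations competed with beads bearing immobilized phenylmorpholin-chromen ligand. Bead-bound kinases were eluted and quantified by antibody dot blot with infrared detection; IC50 values came from dose-response curves.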

PI3Kalpha (PI3Ka) = target: T2, PI3Kalpha (PI3Ka) (Homo sapiens, UniProt P42336); assay: kinobeads assay, PI3Kalpha; conditions: for PI3Ka: Further Kinobeads Data
T2 construct: endogenous in cells; host or cells: cell lysate
T2 sequence (P42336 whole entry): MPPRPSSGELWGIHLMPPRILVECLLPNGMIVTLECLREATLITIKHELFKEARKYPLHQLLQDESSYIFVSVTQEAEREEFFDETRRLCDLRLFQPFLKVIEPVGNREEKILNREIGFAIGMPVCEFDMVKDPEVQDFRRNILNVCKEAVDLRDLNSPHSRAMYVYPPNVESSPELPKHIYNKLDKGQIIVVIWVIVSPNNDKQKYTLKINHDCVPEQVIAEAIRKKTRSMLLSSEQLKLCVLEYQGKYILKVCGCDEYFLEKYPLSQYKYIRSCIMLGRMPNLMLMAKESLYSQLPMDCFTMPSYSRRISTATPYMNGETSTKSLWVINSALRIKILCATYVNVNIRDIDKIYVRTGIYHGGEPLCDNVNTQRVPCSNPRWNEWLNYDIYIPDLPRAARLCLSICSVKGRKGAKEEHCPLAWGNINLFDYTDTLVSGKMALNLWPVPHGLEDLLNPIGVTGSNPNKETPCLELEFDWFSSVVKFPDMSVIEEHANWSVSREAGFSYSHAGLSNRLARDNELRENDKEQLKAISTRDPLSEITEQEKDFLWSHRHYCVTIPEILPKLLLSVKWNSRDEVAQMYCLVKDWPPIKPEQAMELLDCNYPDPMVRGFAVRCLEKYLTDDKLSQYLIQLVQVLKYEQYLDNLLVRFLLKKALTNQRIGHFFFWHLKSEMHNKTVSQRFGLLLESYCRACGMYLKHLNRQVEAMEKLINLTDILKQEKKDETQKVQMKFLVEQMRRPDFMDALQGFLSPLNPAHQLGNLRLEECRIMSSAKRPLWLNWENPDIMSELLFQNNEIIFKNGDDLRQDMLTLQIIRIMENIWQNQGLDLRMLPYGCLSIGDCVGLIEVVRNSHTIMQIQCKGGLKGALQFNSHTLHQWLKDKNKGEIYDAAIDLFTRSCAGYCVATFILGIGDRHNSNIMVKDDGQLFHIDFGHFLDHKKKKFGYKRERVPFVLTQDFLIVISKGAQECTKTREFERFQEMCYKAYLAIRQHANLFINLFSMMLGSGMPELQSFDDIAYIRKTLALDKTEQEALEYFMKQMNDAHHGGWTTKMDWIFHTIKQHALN
T2 sequence (P27986 whole entry partner): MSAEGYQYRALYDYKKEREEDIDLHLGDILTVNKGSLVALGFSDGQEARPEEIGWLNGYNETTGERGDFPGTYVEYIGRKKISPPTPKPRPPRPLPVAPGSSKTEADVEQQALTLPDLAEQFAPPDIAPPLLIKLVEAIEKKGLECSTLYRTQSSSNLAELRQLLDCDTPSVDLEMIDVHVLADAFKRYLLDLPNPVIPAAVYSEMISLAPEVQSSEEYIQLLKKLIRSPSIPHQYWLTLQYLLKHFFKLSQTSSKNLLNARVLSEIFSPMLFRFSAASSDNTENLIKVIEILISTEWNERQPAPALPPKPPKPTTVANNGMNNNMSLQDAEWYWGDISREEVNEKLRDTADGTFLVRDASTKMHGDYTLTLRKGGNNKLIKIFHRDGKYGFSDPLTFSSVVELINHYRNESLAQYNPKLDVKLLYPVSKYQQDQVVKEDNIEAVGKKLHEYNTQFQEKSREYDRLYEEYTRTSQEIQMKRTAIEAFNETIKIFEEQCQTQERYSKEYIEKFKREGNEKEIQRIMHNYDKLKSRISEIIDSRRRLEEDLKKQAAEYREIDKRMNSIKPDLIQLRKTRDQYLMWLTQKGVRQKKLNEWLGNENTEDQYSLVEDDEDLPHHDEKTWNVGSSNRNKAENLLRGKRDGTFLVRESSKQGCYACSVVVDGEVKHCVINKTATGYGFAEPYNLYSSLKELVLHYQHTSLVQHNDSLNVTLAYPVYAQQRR
Method in brief: (§1)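 IC50 values derive from per-kinase dose-response curves in a lysate-based competition binding format. Kinases retained on phenylmorpholin-chromen beads in the presence of compound were eluted and detected by multiplexed immunodetection.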

PI3 Kbeta (PI3 Kb) = target: T3, PI3 Kbeta (PI3 Kb) (Homo sapiens, UniProt P42338); assay: kinobeads assay, PI3Kbeta
T3 construct: endogenous in cells; host or cells: cell lysate
T3 sequence (P42338 whole entry): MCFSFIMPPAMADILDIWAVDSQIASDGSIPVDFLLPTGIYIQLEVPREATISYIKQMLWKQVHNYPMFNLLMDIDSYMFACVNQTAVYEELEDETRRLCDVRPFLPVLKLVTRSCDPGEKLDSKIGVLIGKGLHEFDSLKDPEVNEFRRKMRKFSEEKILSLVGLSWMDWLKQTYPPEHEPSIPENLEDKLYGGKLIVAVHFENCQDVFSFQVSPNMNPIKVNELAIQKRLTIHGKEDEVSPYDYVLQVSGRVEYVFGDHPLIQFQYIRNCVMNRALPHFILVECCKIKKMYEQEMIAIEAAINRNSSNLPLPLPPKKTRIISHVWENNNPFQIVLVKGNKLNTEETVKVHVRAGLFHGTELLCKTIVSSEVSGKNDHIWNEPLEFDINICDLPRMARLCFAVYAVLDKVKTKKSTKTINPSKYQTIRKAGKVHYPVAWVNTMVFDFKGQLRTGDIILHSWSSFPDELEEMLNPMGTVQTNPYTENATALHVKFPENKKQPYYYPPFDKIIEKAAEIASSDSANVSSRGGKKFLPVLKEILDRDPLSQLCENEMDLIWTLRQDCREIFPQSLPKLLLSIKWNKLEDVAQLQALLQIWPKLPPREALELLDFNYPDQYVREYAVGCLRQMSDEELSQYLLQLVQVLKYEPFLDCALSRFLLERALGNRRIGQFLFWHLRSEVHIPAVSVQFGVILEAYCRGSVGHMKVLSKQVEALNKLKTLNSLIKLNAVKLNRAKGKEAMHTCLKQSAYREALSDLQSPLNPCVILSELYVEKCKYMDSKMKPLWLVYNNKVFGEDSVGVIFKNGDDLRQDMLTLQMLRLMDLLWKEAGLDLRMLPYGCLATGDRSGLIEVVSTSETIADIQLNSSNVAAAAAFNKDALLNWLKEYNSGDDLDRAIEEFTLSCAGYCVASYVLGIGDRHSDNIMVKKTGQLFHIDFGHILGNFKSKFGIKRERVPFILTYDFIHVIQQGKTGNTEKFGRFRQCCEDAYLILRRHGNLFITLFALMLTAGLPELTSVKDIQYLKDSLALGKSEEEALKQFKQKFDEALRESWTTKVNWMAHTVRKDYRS
T3 sequence (P27986 whole entry partner): as the sequence (P27986 whole entry partner) above
Method in brief: as §1

PI3 Kgamma (PI3 Kg) = target: T4, PI3 Kgamma (PI3 Kg) (Homo sapiens, UniProt P48736); assay: kinobeads assay, PI3Kgamma
T4 construct: endogenous in cells; host or cells: cell lysate
T4 sequence (P48736 whole entry): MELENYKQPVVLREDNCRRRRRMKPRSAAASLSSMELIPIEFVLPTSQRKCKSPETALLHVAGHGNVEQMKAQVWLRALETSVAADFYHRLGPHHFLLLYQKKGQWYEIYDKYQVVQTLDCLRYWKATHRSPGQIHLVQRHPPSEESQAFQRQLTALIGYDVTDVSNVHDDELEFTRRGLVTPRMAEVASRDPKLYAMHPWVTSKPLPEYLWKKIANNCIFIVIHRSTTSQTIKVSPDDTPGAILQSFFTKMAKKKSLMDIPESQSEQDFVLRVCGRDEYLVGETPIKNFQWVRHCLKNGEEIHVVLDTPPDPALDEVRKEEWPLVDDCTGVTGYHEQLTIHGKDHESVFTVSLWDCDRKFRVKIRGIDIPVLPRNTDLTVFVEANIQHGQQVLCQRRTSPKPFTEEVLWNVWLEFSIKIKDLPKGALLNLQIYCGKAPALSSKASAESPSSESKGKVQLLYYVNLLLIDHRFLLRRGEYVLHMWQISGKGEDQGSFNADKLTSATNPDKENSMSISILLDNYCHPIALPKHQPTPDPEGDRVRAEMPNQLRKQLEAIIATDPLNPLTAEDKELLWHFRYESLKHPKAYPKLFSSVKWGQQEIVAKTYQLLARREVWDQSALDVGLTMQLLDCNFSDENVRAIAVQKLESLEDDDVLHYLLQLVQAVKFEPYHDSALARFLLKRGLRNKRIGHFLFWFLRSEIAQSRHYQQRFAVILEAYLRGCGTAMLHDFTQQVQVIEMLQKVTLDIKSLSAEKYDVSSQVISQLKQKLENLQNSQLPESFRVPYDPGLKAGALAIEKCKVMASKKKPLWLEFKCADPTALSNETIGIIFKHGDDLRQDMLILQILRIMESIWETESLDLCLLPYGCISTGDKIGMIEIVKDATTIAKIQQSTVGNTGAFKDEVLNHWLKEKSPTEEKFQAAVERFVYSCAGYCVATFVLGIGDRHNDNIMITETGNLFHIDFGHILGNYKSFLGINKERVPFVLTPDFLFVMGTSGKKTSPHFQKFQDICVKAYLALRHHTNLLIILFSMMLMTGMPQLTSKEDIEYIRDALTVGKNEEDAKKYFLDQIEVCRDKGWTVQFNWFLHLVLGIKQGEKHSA
Method in brief: as §1

[2] = kinobeads assay, Table 4, read-out: Inhibition values (IC50) DNA-PK
[3] = kinobeads assay, Table 6, read-out: Inhibition values (IC50) DNAPK
[4] = Further Kinobeads Data, read-out: PI3Kb
[5] = Further Kinobeads Data, read-out: DNAPK
[6] = Further Kinobeads Data, read-out: PI3Kg

| SMILES | IC50 [1, 2] | IC50 [1, 3] | also measured |
| --- | --- | --- | --- |
| CC(C)C(=O)N1Cc2nc(-c3ccc(NC(=O)NC4CC4)cc3)nc(N3CCOC[C@@H]3C)c2C1 [Example 44, (S)-1-cyclopropyl-3-(4-(6-isobutyryl-4-(3-methylmorpholino)-6,7-dihydro-5H-pyrrolo[3,4-d]pyrimidin-2-yl)phenyl)urea] | > 10 µM | > 10 µM |  |
| C[C@H]1COCCN1c1nc(-c2ccc(NC(=O)NC3CC3)cc2F)nc2c1CN(C(=O)N(C)C)C2 [Example 178, (S)-2-(4-(3-cyclopropylureido)-2-fluorophenyl)-N,N-dimethyl-4-(3-methylmorpholino)-5H-pyrrolo[3,4-d]pyrimidine-6(7H)-carboxamide] |  |  | PI3Ka (PI3Kalpha (PI3Ka)): D (D >10 μM); IC50 (PI3 Kbeta (PI3 Kb); [4]): > 10 µM; IC50 [1, 5]: > 10 µM; IC50 (PI3 Kgamma (PI3 Kg); [6]): > 10 µM |
| C[C@H]1COCCN1c1nc(-c2ccc(NC(=O)NC3CC3)cc2)nc2c1CCN(CC1CC1)C2 [Example 40, (S)-1-cyclopropyl-3-(4-(7-(cyclopropylmethyl)-4-(3-methylmorpholino)-5,6,7,8-tetrahydropyrido[3,4-d]pyrimidin-2-yl)phenyl)urea] | > 10 µM | > 10 µM | IC50 (PI3Kalpha (PI3Ka); kinobeads assay, Table 6, read-out: Inhibition values (IC50) PI3Ka): 1 to 10 µM; IC50 (PI3 Kbeta (PI3 Kb); kinobeads assay, Table 6, read-out: Inhibition values (IC50) PI3Kb): 1 to 10 µM; IC50 (PI3 Kgamma (PI3 Kg); kinobeads assay, Table 6, read-out: Inhibition values (IC50) PI3Kg): 1 to 10 µM |
| CCCNC(=O)Nc1ccc(-c2nc3c(c(N4CCOC[C@@H]4C)n2)CN(CC2CC2)C3)cc1 [Example 49, (S)-1-(4-(6-(cyclopropylmethyl)-4-(3-methylmorpholino)-6,7-dihydro-5H-pyrrolo[3,4-d]pyrimidin-2-yl)phenyl)-3-propylurea] | > 10 µM | > 10 µM |  |
| C[C@H]1COCCN1c1nc(-c2ccc(NC(N)=O)cc2)nc2c1CN(CC1CC1)C2 [Example 48, (S)-1-(4-(6-(cyclopropylmethyl)-4-(3-methylmorpholino)-6,7-dihydro-5H-pyrrolo[3,4-d]pyrimidin-2-yl)phenyl)urea] | > 10 µM | > 10 µM |  |
| CC(C)N1Cc2nc(-c3ccc(NC(=O)NCCF)cc3F)nc(N3CCOC[C@@H]3C)c2C1 [Example 186, (S)-1-(3-fluoro-4-(6-isopropyl-4-(3-methylmorpholino)-6,7-dihydro-5H-pyrrolo[3,4-d]pyrimidin-2-yl)phenyl)-3-(2-fluoroethyl)urea] |  |  | PI3Ka (PI3Kalpha (PI3Ka)): D (D >10 μM); IC50 (PI3 Kbeta (PI3 Kb); [4]): > 10 µM; IC50 [1, 5]: > 10 µM; IC50 (PI3 Kgamma (PI3 Kg); [6]): > 10 µM |
| CCN1Cc2nc(-c3ccc(NC(=O)NC4CC4)cc3)nc(N3CCOC[C@@H]3C)c2C1 [Example 36, (S)-1-cyclopropyl-3-(4-(6-ethyl-4-(3-methylmorpholino)-6,7-dihydro-5H-pyrrolo[3,4-d]pyrimidin-2-yl)phenyl)urea] | > 10 µM | > 10 µM |  |
| CC(C)NC(=O)Nc1ccc(-c2nc3c(c(N4CCOC[C@@H]4C)n2)CN(CC2CC2)C3)cc1 [Example 50, (S)-1-(4-(6-(cyclopropylmethyl)-4-(3-methylmorpholino)-6,7-dihydro-5H-pyrrolo[3,4-d]pyrimidin-2-yl)phenyl)-3-isopropylurea] | > 10 µM | > 10 µM |  |
| CNC(=O)Nc1ccc(-c2nc3c(c(N4CCOC[C@@H]4C)n2)CN(CC2CC2)C3)cc1 [Example 47, (S)-1-(4-(6-(cyclopropylmethyl)-4-(3-methylmorpholino)-6,7-dihydro-5H-pyrrolo[3,4-d]pyrimidin-2-yl)phenyl)-3-methylurea] | > 10 µM | > 10 µM |  |
| C[C@H]1COCCN1c1nc(-c2ccc(NC(=O)NC3CC3)cc2)nc2c1CCNC2 [Example 15, (S)-1-cyclopropyl-3-(4-(4-(3-methylmorpholino)-5,6,7,8-tetrahydropyrido[3,4-d]pyrimidin-2-yl)phenyl)urea] | > 10 µM | > 10 µM |  |
| C[C@H]1COCCN1c1nc(-c2ccc(NC(=O)NC3CCC3)cc2)nc2c1CN(C)C2 [Example 55, (S)-1-cyclobutyl-3-(4-(6-methyl-4-(3-methylmorpholino)-6,7-dihydro-5H-pyrrolo[3,4-d]pyrimidin-2-yl)phenyl)urea] | > 10 µM | > 10 µM |  |
| CCNC(=O)Nc1ccc(-c2nc3c(c(N4CCOC[C@@H]4C)n2)CN(C=O)C3)cc1 [Example 8, (S)-1-ethyl-3-(4-(6-formyl-4-(3-methylmorpholino)-6,7-dihydro-5H-pyrrolo[3,4-d]pyrimidin-2-yl)phenyl)urea] | > 10 µM | > 10 µM |  |
| CCNC(=O)Nc1ccc(-c2nc3c(c(N4CCOC[C@@H]4C)n2)CN(C)C3)cc1 [Example 26, (S)-1-ethyl-3-(4-(6-methyl-4-(3-methylmorpholino)-6,7-dihydro-5H-pyrrolo[3,4-d]pyrimidin-2-yl)phenyl)urea] | > 10 µM | > 10 µM |  |
| C[C@H]1COCCN1c1nc(-c2ccc(NC(=O)NC3CC3)cc2)nc2c1CN(C(=O)C1CC1)C2 [Example 17, (S)-1-(4-(6-(cyclopropanecarbonyl)-4-(3-methylmorpholino)-6,7-dihydro-5H-pyrrolo[3,4-d]pyrimidin-2-yl)phenyl)-3-cyclopropylurea] | > 10 µM | > 10 µM |  |
| CNC(=O)Nc1ccc(-c2nc3c(c(N4CCOC[C@@H]4C)n2)CCNC3)cc1 [Example 16, (S)-1-methyl-3-(4-(4-(3-methylmorpholino)-5,6,7,8-tetrahydropyrido[3,4-d]pyrimidin-2-yl)phenyl)urea] | > 10 µM | > 10 µM |  |
| CCNC(=O)Nc1ccc(-c2nc3c(c(N4CCOC[C@@H]4C)n2)CN(CC)C3)cc1 [Example 39, (S)-1-ethyl-3-(4-(6-ethyl-4-(3-methylmorpholino)-6,7-dihydro-5H-pyrrolo[3,4-d]pyrimidin-2-yl)phenyl)urea] | > 10 µM | > 10 µM |  |
| CC(C)N1Cc2nc(-c3ccc(NC(=O)NC4CC4)cc3)nc(N3CCOC[C@@H]3C)c2C1 [Example 46, (S)-1-cyclopropyl-3-(4-(6-isopropyl-4-(3-methylmorpholino)-6,7-dihydro-5H-pyrrolo[3,4-d]pyrimidin-2-yl)phenyl)urea] | > 10 µM | > 10 µM |  |
| CCNC(=O)Nc1ccc(-c2nc3c(c(N4CCOC[C@@H]4C)n2)CCNC3)cc1 [Example 13, (S)-1-ethyl-3-(4-(4-(3-methylmorpholino)-5,6,7,8-tetrahydropyrido[3,4-d]pyrimidin-2yl)phenyl)urea] | > 10 µM | > 10 µM |  |
| CC(=O)N1Cc2nc(-c3ccc(NC(=O)NC4CC4)cc3)nc(N3CCOC[C@@H]3C)c2C1 [Example 20, (S)-1-(4-(6-acetyl-4-(3-methylmorpholino)-6,7-dihydro-5H-pyrrolo[3,4-d]pyrimidin-2-yl)phenyl)-3-cyclopropylurea] | > 10 µM | > 10 µM |  |
| C[C@H]1COCCN1c1nc(-c2ccc(NC(=O)NC3CC3)cc2)nc2c1CN(CC1CC1)C2 [Example 30] | > 10 µM | > 10 µM |  |
| CCNC(=O)Nc1ccc(-c2nc3c(c(N4CCOC[C@@H]4C)n2)CN(S(C)(=O)=O)C3)cc1 [Example 32, (S)-1-ethyl-3-(4-(4-(3-methylmorpholino)-6-(methylsulfonyl)-6,7-dihydro-5H-pyrrolo[3,4-d]pyrimidin-2-yl)phenyl)urea] | > 10 µM | > 10 µM |  |
| C[C@H]1COCCN1c1nc(-c2ccc(NC(=O)NC3CC3)cc2)nc2c1CN(C)C2 [Example 38, (S)-1-cyclopropyl-3-(4-(6-methyl-4-(3-methylmorpholino)-6,7-dihydro-5H-pyrrolo[3,4-d]pyrimidin-2-yl)phenyl)urea] | > 10 µM | > 10 µM |  |
| CCNC(=O)Nc1ccc(-c2nc3c(c(N4CCOC[C@@H]4C)n2)CNCC3)cc1 [Example 12, (S)-1-ethyl-3-(4-(4-(3-methylmorpholino)-5,6,7,8-tetrahydropyrido[4,3-d]pyrimidin-2-yl)phenyl)urea] | > 10 µM | > 10 µM |  |
| COC(=O)N1Cc2nc(-c3ccc(NC(=O)NCCF)cc3F)nc(N3CCOCC3)c2C1 [Example 169, Methyl 2-(2-fluoro-4-(3-(2-fluoroethyl)ureido)phenyl)-4-morpholino-5H-pyrrolo[3,4-d]pyrimidine-6(7H)-carboxylate] |  |  | IC50 [1, 5]: > 10 µM |
| CCNC(=O)Nc1ccc(-c2nc3c(c(N4CCOC[C@@H]4C)n2)CN(C(C)=O)C3)cc1 [Example 18, (S)-1-(4-(6-acetyl-4-(3-methylmorpholino)-6,7-dihydro-5H-pyrrolo[3,4-d]pyrimidin-2-yl)phenyl)-3-ethylurea] | > 10 µM | > 10 µM |  |
| C[C@H]1COCCN1c1nc(-c2ccc(NC(=O)NC3CC3)cc2)nc2c1CNCC2 [Example 11, (S)-1-cyclopropyl-3-(4-(4-(3-methylmorpholino)-5,6,7,8-tetrahydropyrido[4,3-d]pyrimidin-2-yl)phenyl)urea] | > 10 µM | > 10 µM |  |
| CCNC(=O)Nc1ccc(-c2nc3c(c(N4CCOC[C@@H]4C)n2)CN(C(=O)C(C)(C)C)C3)cc1 [Example 22, (S)-1-ethyl-3-(4-(4-(3-methylmorpholino)-6-pivaloyl-6,7-dihydro-5H-pyrrolo[3,4-d]pyrimidin-2-yl)phenyl)urea] | > 10 µM | > 10 µM |  |
| CCNC(=O)N1Cc2nc(-c3ccc(NC(=O)NC4CC4)cc3)nc(N3CCOC[C@@H]3C)c2C1 [Example 33, (S)-2-(4-(3-cyclopropylureido)phenyl)-N-ethyl-4-(3-methylmorpholino)-5H-pyrrolo[3,4-d]pyrimidine-6(7H)-carboxamide] | > 10 µM | > 10 µM |  |
